# Key:
# [1] = Oral bioavailability in rat at 1 mg/kg; format: ADME, organism-based; conditions: in vivo
# [2] = Permeability in RRCK cells; format: ADME, cell-based, Canis lupus familiaris, MDCKII-LE; conditions: dog, MDCK; read-out: permeability
# [3] = Plasma clearance in rat at 0.5 mg/kg, iv and 1 mg/kg, po; format: ADME, organism-based
# [4] = target: T1, Solute carrier family 22 member 12 (Homo sapiens, UniProt Q96S37); assay: Inhibition of human C-terminal eGFP-tagged URAT1 long isoform expressed in CHO cells assessed as decrease in [14C]-uric acid uptake preincubated for 15 mins followed by [14C]-uric acid addition and incubated in dark for 3 hrs by scintillation counting method; format: cell-based
# T1 sequence (Q96S37 whole entry): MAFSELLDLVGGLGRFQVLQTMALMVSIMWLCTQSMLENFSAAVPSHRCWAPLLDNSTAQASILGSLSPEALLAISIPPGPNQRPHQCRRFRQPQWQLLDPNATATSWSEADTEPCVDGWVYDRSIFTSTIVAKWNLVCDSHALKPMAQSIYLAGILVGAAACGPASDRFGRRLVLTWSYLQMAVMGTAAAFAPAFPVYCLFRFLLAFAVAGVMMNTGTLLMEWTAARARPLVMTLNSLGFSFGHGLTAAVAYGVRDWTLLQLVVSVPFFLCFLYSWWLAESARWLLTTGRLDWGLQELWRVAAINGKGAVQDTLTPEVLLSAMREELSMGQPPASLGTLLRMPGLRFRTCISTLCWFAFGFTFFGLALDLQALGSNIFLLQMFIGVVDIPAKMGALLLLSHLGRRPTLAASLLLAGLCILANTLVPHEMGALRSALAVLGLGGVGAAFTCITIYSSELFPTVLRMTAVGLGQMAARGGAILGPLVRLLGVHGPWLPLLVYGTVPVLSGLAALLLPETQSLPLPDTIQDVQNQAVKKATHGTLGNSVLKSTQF
# [5] = Unbound Cmax in dog at 30 mg/kg, po administered as single dose measured on day 14; format: ADME, organism-based, Canis lupus familiaris; conditions: in vivo
# [6] = Drug metabolism in rat assessed as oxidation of chlorophenyl ring; format: ADME
# [7] = target: Sodium channel protein type 9 subunit alpha (Homo sapiens, UniProt Q15858); assay: Inhibition of NaV1.7 (unknown origin) by electrophysiology assay
# [8] = target: Solute carrier family 22 member 6 (Homo sapiens, UniProt Q4U2R8); assay: Inhibition of OAT1 (unknown origin)
# [9] = target: Cytochrome P450 2C9 (Homo sapiens, UniProt P11712); assay: Inhibition of CYP2C9 (unknown origin); format: ADME
# [10] = target: Solute carrier organic anion transporter family member 1B1 (Homo sapiens, UniProt Q9Y6L6); assay: Drug uptake assessed as human OATP1B1-mediated drug accumulation by cell-based assay relative to wild type protein; format: ADME
# [11] = Drug metabolism in human hepatocytes assessed as loss of chlorobenzonitrile moiety in presence of glutathione; format: ADME, cell-based, Hepatocyte
# [12] = target: Solute carrier family 22 member 11 (Homo sapiens, UniProt Q9NSA0); assay: Inhibition of OAT4 (unknown origin)
# [13] = system: Rattus norvegicus; assay: Toxicity in rat assessed as hepatocellular hypertrophy with focal necrosis at 300 mg/kg/day, po measured over 14 days by microscopic analysis; format: organism-based; conditions: in vivo, 336 h
# [14] = system: Rattus norvegicus; assay: Toxicity in rat assessed as mortality at 300 mg/kg/day, po measured over 14 days; format: organism-based; conditions: in vivo, 336 h
# [15] = Average plasma concentration in rat at 30 mg/kg, po administered as single dose measured on day 14; format: ADME, organism-based; conditions: in vivo
# [16] = Octanol-water partition co-efficient, log D of the compound by shake flask method; format: physicochemical
# [17] = system: Rattus norvegicus; assay: Toxicity in rat assessed as increase in mitosis in collecting ducts at 300 mg/kg/day, po measured over 14 days by microscopic analysis; format: organism-based; conditions: in vivo, 336 h
# [18] = Drug metabolism in rat assessed as loss of chlorobenzonitrile moiety in presence of glutathione; format: ADME
# [19] = Inhibition of GABAA receptor (unknown origin); parameters: species or system Homo sapiens
# [20] = Unbound clearance in rat at 0.5 mg/kg, iv and 1 mg/kg, po; format: ADME, organism-based; conditions: in vivo
# [21] = target: Solute carrier organic anion transporter family member 1B3 (Homo sapiens, UniProt Q9NPD5); assay: Drug uptake assessed as human OATP1B3-mediated drug accumulation by cell-based assay relative to wild type protein; format: ADME
# [22] = system: Rattus norvegicus; assay: Cardiovascular toxicity in rat assessed as small biphasic change in blood pressure at 30 to 100 mg/kg, po measured over 14 days; format: organism-based; conditions: in vivo, 336 h
# [23] = Toxicity in po dosed dog measured assessed as drug tolerance measured over 14 days; format: organism-based, Canis lupus familiaris; conditions: in vivo, 336 h
# [24] = Toxicity in po dosed rat measured over 14 days; format: organism-based; conditions: in vivo
# [25] = Renal clearance in rat; format: ADME; conditions: in vivo
# [26] = target: Cytochrome P450 2C8 (Homo sapiens, UniProt P10632); assay: Inhibition of CYP2C8 (unknown origin); format: ADME
# [27] = Intrinsic clearance in rat hepatocytes assessed per 10^6 cells; format: ADME, cell-based, Hepatocyte; conditions: read-out: CLH
# [28] = Fraction unbound in human plasma; format: ADME, cell-free
# [29] = Intrinsic clearance in dog hepatocytes assessed per 10^6 cells; format: ADME, cell-based, Canis lupus familiaris, Hepatocyte; conditions: read-out: CLH
# [30] = system: Rattus norvegicus; assay: Cardiovascular toxicity in rat assessed as decrease in heart rate at 10 mg/kg, po measured over 14 days; format: organism-based; conditions: in vivo, 336 h
# [31] = target: Cytochrome P450 3A4 (Homo sapiens, UniProt P08684); assay: Inhibition of CYP3A4 (unknown origin); format: ADME
# [32] = target: Cytochrome P450 1A2 (Homo sapiens, UniProt P05177); assay: Inhibition of CYP1A2 (unknown origin); format: ADME
# [33] = Unbound Cmax in rat at 30 mg/kg, po administered as single dose measured on day 14; format: ADME, organism-based; conditions: in vivo
# [34] = Average plasma concentration in rat at 10 mg/kg, po administered as single dose measured on day 14; format: ADME, organism-based; conditions: in vivo
# [35] = Unbound clearance in rat at 0.76 mg/kg, iv and 2.3 mg/kg, po; format: ADME, organism-based; conditions: in vivo
# [36] = Mutagenicity in […] by Ames test in absence of […] fraction; format: toxicity
# [37] = Volume of distribution at steady state in rat at 0.5 mg/kg, iv and 1 mg/kg, po; format: ADME, organism-based; conditions: in vivo, read-out: Vdss
# [38] = Renal clearance in dog; format: ADME, Canis lupus familiaris; conditions: in vivo
# [39] = target: Cytochrome P450 2C19 (Homo sapiens, UniProt P33261); assay: Inhibition of CYP2C19 (unknown origin); format: ADME
# [40] = system: Canis familiaris; assay: Hepatotoxicity in male dog assessed as pathological changes at >= 30 mg/kg/day, po measured over 14 days; format: toxicity, organism-based, Canis lupus familiaris; conditions: in vivo, 336 h
# [41] = Dissociation constant, pKa of the compound; format: physicochemical
# [42] = Oral bioavailability in rat at 2.3 mg/kg; format: ADME, organism-based; conditions: in vivo
# [43] = Drug excretion in bile of bile duct cannulated rat; format: ADME; conditions: read-out: Drug excretion
# [44] = Intrinsic clearance in dog liver microsomes; format: ADME, Canis lupus familiaris; conditions: read-out: CLH
# [45] = system: Canis familiaris; assay: Hepatotoxicity in female dog assessed as pathological changes at >= 100 mg/kg/day, po measured over 14 days; format: toxicity, organism-based, Canis lupus familiaris; conditions: in vivo, 336 h
# [46] = system: Canis familiaris; assay: Hepatotoxicity in male dog assessed as decrease in alanine aminotransferase levels at >= 30 mg/kg/day, po measured over 14 days; format: toxicity, organism-based, Canis lupus familiaris; conditions: in vivo, 336 h
# [47] = Toxicity in dog assessed as histologic change in testes at 300 mg/kg/day, po measured over 14 days; format: organism-based, Canis lupus familiaris; conditions: in vivo, 336 h
# Solute carrier family 22 member 11, sequence (Q9NSA0 whole entry): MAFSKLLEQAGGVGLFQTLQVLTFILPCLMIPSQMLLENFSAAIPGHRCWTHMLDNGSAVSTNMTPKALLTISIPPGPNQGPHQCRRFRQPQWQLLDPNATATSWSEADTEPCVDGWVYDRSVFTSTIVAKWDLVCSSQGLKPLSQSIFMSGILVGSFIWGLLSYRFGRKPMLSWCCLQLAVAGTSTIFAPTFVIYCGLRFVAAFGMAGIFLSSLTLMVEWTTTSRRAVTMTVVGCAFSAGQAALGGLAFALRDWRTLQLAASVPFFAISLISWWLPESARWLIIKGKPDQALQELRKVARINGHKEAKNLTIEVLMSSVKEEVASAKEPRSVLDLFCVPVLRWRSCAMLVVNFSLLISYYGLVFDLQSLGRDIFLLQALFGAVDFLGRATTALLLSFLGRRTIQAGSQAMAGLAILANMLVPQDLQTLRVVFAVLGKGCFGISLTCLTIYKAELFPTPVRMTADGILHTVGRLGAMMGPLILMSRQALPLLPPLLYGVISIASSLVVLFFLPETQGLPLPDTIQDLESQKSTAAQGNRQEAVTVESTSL
# Solute carrier organic anion transporter family member 1B3, sequence (Q9NPD5 whole entry): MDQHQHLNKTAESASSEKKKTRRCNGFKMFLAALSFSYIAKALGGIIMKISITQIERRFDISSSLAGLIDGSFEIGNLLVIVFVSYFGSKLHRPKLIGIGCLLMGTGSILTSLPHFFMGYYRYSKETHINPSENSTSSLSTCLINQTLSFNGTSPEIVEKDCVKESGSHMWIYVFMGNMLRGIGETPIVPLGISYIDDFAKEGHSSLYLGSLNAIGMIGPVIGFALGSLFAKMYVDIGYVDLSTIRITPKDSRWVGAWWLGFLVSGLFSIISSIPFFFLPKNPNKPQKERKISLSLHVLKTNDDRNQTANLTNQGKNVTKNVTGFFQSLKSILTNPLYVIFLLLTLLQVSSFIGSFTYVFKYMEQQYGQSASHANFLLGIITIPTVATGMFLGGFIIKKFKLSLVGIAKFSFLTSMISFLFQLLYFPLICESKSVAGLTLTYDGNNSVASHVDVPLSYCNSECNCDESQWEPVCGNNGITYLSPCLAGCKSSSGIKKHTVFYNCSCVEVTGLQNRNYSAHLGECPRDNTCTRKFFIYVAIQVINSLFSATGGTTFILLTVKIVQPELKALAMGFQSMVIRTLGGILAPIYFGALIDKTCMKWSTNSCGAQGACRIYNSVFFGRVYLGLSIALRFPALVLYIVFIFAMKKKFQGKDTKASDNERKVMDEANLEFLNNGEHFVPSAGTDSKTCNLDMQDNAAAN
# Cytochrome P450 1A2, sequence (P05177 whole entry): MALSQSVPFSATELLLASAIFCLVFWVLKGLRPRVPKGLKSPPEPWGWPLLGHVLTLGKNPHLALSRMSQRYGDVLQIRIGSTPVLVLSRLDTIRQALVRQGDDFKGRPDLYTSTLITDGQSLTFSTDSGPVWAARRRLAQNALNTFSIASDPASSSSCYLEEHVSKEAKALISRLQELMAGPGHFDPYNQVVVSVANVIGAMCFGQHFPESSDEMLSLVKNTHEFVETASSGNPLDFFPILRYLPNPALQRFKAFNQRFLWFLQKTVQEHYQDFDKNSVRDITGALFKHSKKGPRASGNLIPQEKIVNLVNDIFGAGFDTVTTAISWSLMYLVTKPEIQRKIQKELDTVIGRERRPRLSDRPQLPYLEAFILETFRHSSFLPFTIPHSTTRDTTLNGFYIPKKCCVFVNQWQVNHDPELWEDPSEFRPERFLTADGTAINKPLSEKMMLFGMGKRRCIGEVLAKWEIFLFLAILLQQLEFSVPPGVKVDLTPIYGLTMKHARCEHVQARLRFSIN
# Cytochrome P450 2C8, sequence (P10632 whole entry): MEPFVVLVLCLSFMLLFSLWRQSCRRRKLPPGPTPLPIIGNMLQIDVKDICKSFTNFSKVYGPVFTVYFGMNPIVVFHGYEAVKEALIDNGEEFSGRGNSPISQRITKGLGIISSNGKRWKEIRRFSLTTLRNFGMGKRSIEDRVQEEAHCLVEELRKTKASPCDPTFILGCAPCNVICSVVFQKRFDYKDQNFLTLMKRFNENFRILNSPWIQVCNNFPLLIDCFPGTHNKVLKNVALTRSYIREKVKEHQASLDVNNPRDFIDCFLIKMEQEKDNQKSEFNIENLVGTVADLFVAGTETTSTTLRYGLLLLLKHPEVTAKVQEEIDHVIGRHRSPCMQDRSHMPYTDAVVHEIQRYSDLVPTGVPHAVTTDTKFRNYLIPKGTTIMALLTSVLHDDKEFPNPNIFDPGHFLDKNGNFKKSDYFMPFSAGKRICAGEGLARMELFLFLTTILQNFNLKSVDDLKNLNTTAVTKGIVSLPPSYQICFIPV
# Solute carrier organic anion transporter family member 1B1, sequence (Q9Y6L6 whole entry): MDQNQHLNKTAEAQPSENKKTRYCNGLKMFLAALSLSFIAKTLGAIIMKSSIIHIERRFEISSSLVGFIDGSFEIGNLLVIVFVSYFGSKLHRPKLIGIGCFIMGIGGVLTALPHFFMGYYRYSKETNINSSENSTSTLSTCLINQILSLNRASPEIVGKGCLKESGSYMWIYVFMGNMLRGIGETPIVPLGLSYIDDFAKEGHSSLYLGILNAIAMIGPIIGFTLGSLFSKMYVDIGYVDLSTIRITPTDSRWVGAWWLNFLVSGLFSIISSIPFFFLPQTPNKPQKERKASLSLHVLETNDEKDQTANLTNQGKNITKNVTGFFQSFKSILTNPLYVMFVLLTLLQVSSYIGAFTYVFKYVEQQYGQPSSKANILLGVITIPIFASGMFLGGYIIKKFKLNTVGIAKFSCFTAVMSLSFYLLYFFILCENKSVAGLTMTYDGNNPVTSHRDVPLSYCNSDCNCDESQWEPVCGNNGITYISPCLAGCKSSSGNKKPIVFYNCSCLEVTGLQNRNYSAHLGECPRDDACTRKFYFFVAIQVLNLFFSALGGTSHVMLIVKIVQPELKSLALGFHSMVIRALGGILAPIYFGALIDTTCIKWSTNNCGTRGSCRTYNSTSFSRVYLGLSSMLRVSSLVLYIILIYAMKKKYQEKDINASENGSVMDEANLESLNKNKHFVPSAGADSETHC
# Solute carrier family 22 member 6, sequence (Q4U2R8 whole entry): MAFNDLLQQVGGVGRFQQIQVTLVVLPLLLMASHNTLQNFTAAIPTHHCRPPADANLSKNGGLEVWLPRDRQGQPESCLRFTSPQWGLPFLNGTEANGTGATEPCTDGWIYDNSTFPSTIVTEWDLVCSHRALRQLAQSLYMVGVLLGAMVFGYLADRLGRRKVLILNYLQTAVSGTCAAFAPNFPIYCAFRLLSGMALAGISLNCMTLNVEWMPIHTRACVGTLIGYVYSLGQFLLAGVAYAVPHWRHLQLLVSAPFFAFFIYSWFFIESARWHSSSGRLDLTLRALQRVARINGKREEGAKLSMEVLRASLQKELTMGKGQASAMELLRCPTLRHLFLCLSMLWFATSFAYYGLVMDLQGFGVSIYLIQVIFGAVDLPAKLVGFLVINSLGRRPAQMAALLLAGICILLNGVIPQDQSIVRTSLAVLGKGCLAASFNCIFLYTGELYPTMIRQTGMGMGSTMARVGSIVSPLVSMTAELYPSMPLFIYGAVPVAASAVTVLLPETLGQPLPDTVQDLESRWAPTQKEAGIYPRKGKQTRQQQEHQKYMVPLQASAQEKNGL
# Cytochrome P450 3A4, sequence (P08684 whole entry): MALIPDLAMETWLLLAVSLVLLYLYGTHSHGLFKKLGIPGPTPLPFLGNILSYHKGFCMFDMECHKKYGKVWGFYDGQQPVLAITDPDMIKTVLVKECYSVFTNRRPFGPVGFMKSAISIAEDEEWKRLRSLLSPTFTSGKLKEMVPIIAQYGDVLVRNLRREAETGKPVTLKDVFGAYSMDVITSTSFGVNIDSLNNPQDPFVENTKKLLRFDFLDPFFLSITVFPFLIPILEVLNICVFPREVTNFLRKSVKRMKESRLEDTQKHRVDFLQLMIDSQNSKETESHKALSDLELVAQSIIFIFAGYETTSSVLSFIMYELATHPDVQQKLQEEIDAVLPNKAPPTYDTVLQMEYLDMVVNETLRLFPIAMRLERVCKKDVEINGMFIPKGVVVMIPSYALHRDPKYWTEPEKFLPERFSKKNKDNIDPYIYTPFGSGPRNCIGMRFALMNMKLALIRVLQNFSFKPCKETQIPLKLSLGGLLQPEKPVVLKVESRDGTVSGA
# Cytochrome P450 2C9, sequence (P11712 whole entry): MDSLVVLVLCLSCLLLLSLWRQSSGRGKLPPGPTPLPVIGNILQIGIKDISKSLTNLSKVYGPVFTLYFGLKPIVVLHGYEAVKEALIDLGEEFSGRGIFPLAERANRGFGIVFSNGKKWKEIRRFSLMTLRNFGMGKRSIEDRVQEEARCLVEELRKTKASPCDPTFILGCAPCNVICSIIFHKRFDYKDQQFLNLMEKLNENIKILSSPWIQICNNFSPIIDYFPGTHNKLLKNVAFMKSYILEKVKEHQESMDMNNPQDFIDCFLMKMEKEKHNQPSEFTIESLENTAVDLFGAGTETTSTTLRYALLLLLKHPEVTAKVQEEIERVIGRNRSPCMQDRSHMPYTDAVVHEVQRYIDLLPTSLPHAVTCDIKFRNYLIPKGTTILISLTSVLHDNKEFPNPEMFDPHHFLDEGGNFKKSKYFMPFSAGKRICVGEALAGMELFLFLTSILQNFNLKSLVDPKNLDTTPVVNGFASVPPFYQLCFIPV
# Cytochrome P450 2C19, sequence (P33261 whole entry): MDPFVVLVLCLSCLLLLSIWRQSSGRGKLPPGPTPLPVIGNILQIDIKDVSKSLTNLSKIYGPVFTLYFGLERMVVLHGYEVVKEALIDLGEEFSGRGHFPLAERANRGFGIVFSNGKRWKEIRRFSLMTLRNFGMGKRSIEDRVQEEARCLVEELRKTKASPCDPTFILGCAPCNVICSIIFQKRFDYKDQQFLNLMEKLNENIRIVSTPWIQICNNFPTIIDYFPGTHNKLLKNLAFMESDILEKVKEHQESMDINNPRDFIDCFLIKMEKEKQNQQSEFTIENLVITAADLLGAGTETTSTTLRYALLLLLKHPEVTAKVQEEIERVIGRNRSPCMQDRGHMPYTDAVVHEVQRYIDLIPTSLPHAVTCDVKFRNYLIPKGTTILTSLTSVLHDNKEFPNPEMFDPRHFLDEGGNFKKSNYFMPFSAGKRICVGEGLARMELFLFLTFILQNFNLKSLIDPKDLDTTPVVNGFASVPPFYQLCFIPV
smiles,measurement,setting,value
N#Cc1ccc(Oc2ccc(S(=O)(=O)Nc3ccc(F)cn3)cc2C#N)cc1Cl,bioavailability,[1],100%
same,Papp,[2],16 ×10⁻⁶ cm/s
same,clearance,[3],0.39 mL/min/kg
same,IC50,[4],0.012 µM
same,fCmax,[5],7.419 µM
same,Drug metabolism,[6],Metabolite_Detected
same,IC50,[7],> 30 µM
same,IC50,[8],14 µM
same,IC50,[9],4.2 µM
same,fold change (FC),[10],1.003
same,Drug metabolism,[11],Metabolite_Detected
same,IC50,[12],14 µM
same,Activity,[13],Toxic
same,Activity,[14],Toxic
same,Cave,[15],123 nM
same,logD,[16],1.8
same,Activity,[17],Toxic
same,Drug metabolism,[18],Metabolite_Notdetected
same,Ki,[19],4.8 µM
same,CL free,[20],95 mL/min/kg
same,fold change (FC),[21],1.067
same,Activity,[22],Toxic
same,Activity,[23],<= 300 mg kg-1
same,MTD at 336 h,[24],100 mg/kg
same,CL renal,[25],0.0001 mL/min/kg
same,IC50,[26],11.9 µM
same,hepatocyte CLint,[27],10 µL/min/1e6 cells
same,fraction unbound,[28],0.0012
same,hepatocyte CLint,[29],< 6 µL/min/1e6 cells
same,Activity,[30],Toxic
same,IC50,[31],17.5 µM
same,IC50,[32],> 30 µM
same,fCmax,[33],179 nM
same,Cave,[34],41 nM
same,CL free,[35],229 mL/min/kg
same,Activity,[36],Non-Toxic
same,Vd,[37],0.18 L/kg
same,CL renal,[38],0.0001 mL/min/kg
same,IC50,[39],17.2 µM
same,Activity,[40],Non-Toxic
same,pKa,[41],5.8
same,bioavailability,[42],100%
same,dose excreted,[43],< 0.5%
same,microsomal CLint,[44],< 18 µL/min/mg
same,Activity,[45],Non-Toxic
same,Activity,[46],Toxic
same,Activity,[47],Toxic

# — ChEMBL document CHEMBL3853264 (Medchemcomm, 2016)
